Measurements published in ChEMBL document CHEMBL4049411, “Rational Design, Synthesis, and Biological Evaluation of Heterocyclic Quinolones Targeting the Respiratory Chain of Mycobacterium tuberculosis” (J Med Chem, 2017).

Assays:
Rattus norvegicus [1] = assay: Half life in Wistar rat assessed as 2-(4-(3,3-Difluoropyrrolidin-1-yl)phenyl)-5,7-difluoro-3-methylquinolin-4(1H)-one at 0.5 mg/kg, iv after 24 hrs by LC-MS/MS analysis; assay type: ADME, organism-based; conditions: in vivo
Rattus norvegicus [2] = assay: Clearance in Wistar rat assessed as 2-(4-(3,3-Difluoropyrrolidin-1-yl)phenyl)-5,7-difluoro-3-methylquinolin-4(1H)-one at 0.5 mg/kg, iv after 24 hrs by LC-MS/MS analysis; assay type: ADME, organism-based; conditions: in vivo
Rattus norvegicus [3] = assay: Volume of distribution in steady state in Wistar rat assessed as 2-(4-(3,3-Difluoropyrrolidin-1-yl)phenyl)-5,7-difluoro-3-methylquinolin-4(1H)-one at 0.5 mg/kg, iv after 24 hrs by LC-MS/MS analysis; assay type: ADME, organism-based; conditions: in vivo
[4] = Half life in Wistar rat at 10 mg/kg administered via oral gavage after 24 hrs by LC-MS/MS analysis; assay type: ADME, organism-based; conditions: in vivo
[5] = Cmax in Wistar rat at 10 mg/kg administered via oral gavage after 24 hrs by LC-MS/MS analysis; assay type: ADME, organism-based; parameters: dose 10 mg/kg, route oral; conditions: in vivo
Rattus norvegicus [6] = assay: AUC in Wistar rat assessed as 2-(4-(3,3-Difluoropyrrolidin-1-yl)phenyl)-5,7-difluoro-3-methylquinolin-4(1H)-one at 0.5 mg/kg, iv after 24 hrs by LC-MS/MS analysis; assay type: ADME, organism-based; parameters: time < 24 hr, dose 0.5 mg/kg, route intravenous; conditions: in vivo
Rattus norvegicus [7] = assay: Half life in Wistar rat assessed as 2-(4-(3,3-Difluoropyrrolidin-1-yl)phenyl)-5,7-difluoro-3-methylquinolin-4(1H)-one at 10 mg/kg administered via oral gavage after 24 hrs by LC-MS/MS analysis; assay type: ADME, organism-based; conditions: in vivo
Rattus norvegicus [8] = assay: Cmax in Wistar rat assessed as 2-(4-(3,3-Difluoropyrrolidin-1-yl)phenyl)-5,7-difluoro-3-methylquinolin-4(1H)-one at 10 mg/kg administered via oral gavage after 24 hrs by LC-MS/MS analysis; assay type: ADME, organism-based; parameters: dose 10 mg/kg, route oral; conditions: in vivo
Rattus norvegicus [9] = assay: AUC in Wistar rat assessed as 2-(4-(3,3-Difluoropyrrolidin-1-yl)phenyl)-5,7-difluoro-3-methylquinolin-4(1H)-one at 10 mg/kg administered via oral gavage after 24 hrs by LC-MS/MS analysis; assay type: ADME, organism-based; parameters: dose 10 mg/kg, time < 24 hr, route oral; conditions: in vivo
Rattus norvegicus [10] = assay: Oral bioavailability in Wistar rat assessed as 2-(4-(3,3-Difluoropyrrolidin-1-yl)phenyl)-5,7-difluoro-3-methylquinolin-4(1H)-one at 10 mg/kg administered via gavage after 24 hrs by LC-MS/MS analysis; assay type: ADME, organism-based; conditions: in vivo
Rattus norvegicus [11] = assay: Half life in Wistar rat assessed as 2-(4-(3,3-Difluoropyrrolidin-1-yl)phenyl)-5,7-difluoro-3-methylquinolin-4(1H)-one at 50 mg/kg administered via oral gavage after 24 hrs by LC-MS/MS analysis; assay type: ADME, organism-based; conditions: in vivo
Rattus norvegicus [12] = assay: Cmax in Wistar rat assessed as 2-(4-(3,3-Difluoropyrrolidin-1-yl)phenyl)-5,7-difluoro-3-methylquinolin-4(1H)-one at 50 mg/kg administered via oral gavage after 24 hrs by LC-MS/MS analysis; assay type: ADME, organism-based; parameters: dose 50 mg/kg, route oral; conditions: in vivo
Rattus norvegicus [13] = assay: AUC in Wistar rat assessed as 2-(4-(3,3-Difluoropyrrolidin-1-yl)phenyl)-5,7-difluoro-3-methylquinolin-4(1H)-one at 50 mg/kg administered via oral gavage after 24 hrs by LC-MS/MS analysis; assay type: ADME, organism-based; parameters: dose 50 mg/kg, time < 24 hr, route oral; conditions: in vivo
Rattus norvegicus [14] = assay: Oral bioavailability in Wistar rat assessed as 2-(4-(3,3-Difluoropyrrolidin-1-yl)phenyl)-5,7-difluoro-3-methylquinolin-4(1H)-one at 50 mg/kg administered via gavage after 24 hrs by LC-MS/MS analysis; assay type: ADME, organism-based; conditions: in vivo
[15] = AUC in Wistar rat at 10 mg/kg administered via oral gavage after 24 hrs by LC-MS/MS analysis; assay type: ADME, organism-based; parameters: dose 10 mg/kg, time < 24 hr, route oral; conditions: in vivo
[16] = Oral bioavailability in Wistar rat at 10 mg/kg administered via gavage after 24 hrs by LC-MS/MS analysis; assay type: ADME, organism-based; conditions: in vivo
[17] = Half life in Wistar rat at 50 mg/kg administered via oral gavage after 24 hrs by LC-MS/MS analysis; assay type: ADME, organism-based; conditions: in vivo
[18] = Cmax in Wistar rat at 50 mg/kg administered via oral gavage after 24 hrs by LC-MS/MS analysis; assay type: ADME, organism-based; parameters: dose 50 mg/kg, route oral; conditions: in vivo
[19] = AUC in Wistar rat at 50 mg/kg administered via oral gavage after 24 hrs by LC-MS/MS analysis; assay type: ADME, organism-based; parameters: time < 24 hr, dose 50 mg/kg, route oral; conditions: in vivo
[20] = Oral bioavailability in Wistar rat at 50 mg/kg administered via gavage after 24 hrs by LC-MS/MS analysis; assay type: ADME, organism-based; conditions: in vivo
[21] = Drug metabolism in Sprague-Dawley rat assessed as M1 metabolite formation in bile at 50 mg/kg, po via gavage up to 9 hrs by HPLC analysis; assay type: ADME, organism-based; conditions: in vivo
[22] = Drug metabolism in Sprague-Dawley rat assessed as M2 metabolite formation in bile at 50 mg/kg, po via gavage up to 9 hrs by HPLC analysis; assay type: ADME, organism-based; conditions: in vivo
[23] = Drug metabolism in Sprague-Dawley rat assessed as M3 metabolite formation in bile at 50 mg/kg, po via gavage up to 9 hrs by HPLC analysis; assay type: ADME, organism-based; conditions: in vivo
[24] = Drug metabolism in Sprague-Dawley rat assessed as M3 metabolite formation in urine at 50 mg/kg, po via gavage up to 9 hrs by HPLC analysis; assay type: ADME, organism-based; conditions: in vivo
[25] = Drug metabolism in Sprague-Dawley rat assessed as 2-(4-(3,3-difluoro-4-hydroxypyrrolidin-1-yl)phenyl)-5,7-difluoro-3-methylquinolin-4(1H)-one metabolite formation in urine at 50 mg/kg, po via gavage up to 9 hrs by HPLC analysis; assay type: ADME, organism-based; conditions: in vivo
[26] = Drug metabolism in Sprague-Dawley rat assessed as 2-(4-(3,3-difluoro-4-hydroxypyrrolidin-1-yl)phenyl)-5,7-difluoro-3-methylquinolin-4(1H)-one metabolite formation in bile at 50 mg/kg, po via gavage up to 9 hrs by HPLC analysis; assay type: ADME, organism-based; conditions: in vivo
[27] = Prodrug activation in Sprague-Dawley rat assessed as 2-(4-(3,3-difluoropyrrolidin-1-yl)phenyl)-5,7-difluoro-3-methylquinolin-4(1H)-one formation in urine at 50 mg/kg, po via gavage up to 9 hrs by HPLC analysis; assay type: organism-based; conditions: in vivo
[28] = Prodrug activation in Sprague-Dawley rat assessed as 2-(4-(3,3-difluoropyrrolidin-1-yl)phenyl)-5,7-difluoro-3-methylquinolin-4(1H)-one formation in bile at 50 mg/kg, po via gavage up to 9 hrs by HPLC analysis; assay type: organism-based; conditions: in vivo
[29] = Retention time of compound by HPLC anlaysis

## CC(=O)Oc1c(C)c(-c2ccc(N3CCC(F)(F)C3)cc2)nc2cc(F)cc(F)c12
Rattus norvegicus [1]
  t1/2: 1.48 h
Rattus norvegicus [2]
  CL: 8.73 mL/min/kg
Rattus norvegicus [3]
  Vdss: 0.291 L/kg
[4]
  half-life: 3.9 h
[5]
  Cmax: 1700 ng/mL
Rattus norvegicus [6]
  AUC: 964 ng·h/mL
Rattus norvegicus [7]
  t1/2: 3.8 h
Rattus norvegicus [8]
  Cmax: 610 ng/mL
Rattus norvegicus [9]
  AUC: 5400 ng·h/mL
Rattus norvegicus [10]
  F: 28%
Rattus norvegicus [11]
  t1/2: 4.2 h
Rattus norvegicus [12]
  Cmax: 1400 ng/mL
Rattus norvegicus [13]
  AUC: 16500 ng·h/mL
Rattus norvegicus [14]
  F: 17.1%
[15]
  AUC at 24 h: 12300 ng·h/mL
[16]
  bioavailability: 63.8%
[17]
  half-life: 2.3 h
[18]
  Cmax: 4000 ng/mL
[19]
  AUC at 24 h: 29600 ng·h/mL
[20]
  bioavailability: 30.7%
[21]
  Drug metabolism: Metabolite_Detected
[22]
  Drug metabolism: Metabolite_Detected
[23]
  Drug metabolism: Metabolite_Detected
[24]
  Drug metabolism: Metabolite_Detected
[25]
  Drug metabolism: Metabolite_Detected
[26]
  Drug metabolism: Metabolite_Detected
[27]
  Drug metabolism: Metabolite_Detected
[28]
  Drug metabolism: Metabolite_Detected
[29]
  Retention time: 14.3 min
